The text below walks through data of patent US12390449B2, “Substituted 2-aminobenzimidazoles analogs as antibiofilm agents” (priority 2018, dated 2025).

Data set [1] concerns Salmonella typhimurium ATCC14028 Biofilms. The data set is described as follows: Inhibitory effect of test compounds on Salmonella typhimurium ATCC14028 biofilms (crystal violet, 96-well). To be noted: for antibiofilm activity (in words): compared with parent compound 1. It counts as cell-based. On the procedure: Procedure to Determine the Inhibitory Effect of Test Compounds on Salmonella typhimurium ATCC14028 Biofilms: […] Stock solutions of predetermined concentrations of the test compounds were then made in 1 mL of bacterial culture. […] Sample plates were then incubated for 24 h at 30° C. After incubation, the medium was discarded from the wells and the plates were washed thoroughly with water. Plates were then stained with 110 μL of 0.1% solution of crystal violet (CV) and then incubated at ambient temperature for 30 min. Plates were washed with water again and the remaining stain was solubilized with 200 μL of 95% ethanol. A sample of 125 μL of solubilized CV stain from each well was transferred to the corresponding wells of a polystyrene microtiter dish. Biofilm inhibition was quantitated by measuring the OD540 of each well in which a negative control lane wherein no biofilm was formed served as a background and was subtracted out.

Data set [2] has as its system Galleria mellonella larvae. The data set is described as follows: Toxicity assay in Galleria mellonella larvae. The class given is in vivo. To be noted: 400 mg kg^−1. On the procedure:
FIGS. 5A-5B show representative toxicity data obtained for a representative disclosed compound. […] Briefly, S. typhimurium (JSG210) was grown in the presence of a representative disclosed compound, compound M4, present at a concentration of 10 μM for 24 hours, followed by determination of viability measured by drip plating at T=0, 2, 5, 15, 20, 24 hours. 3 biological replicates were tested. […] Briefly, a representative disclosed compound, compound M4, was injected into last left proleg of Galleria mellonella larvae at 400 mg/kg and assessed at 24-hour intervals over 5 days. The study was repeated 3 times using 10 larvae per experiment group.
Toxicity was measured by drip plating and counting cfu/mL.

The subject of data set [3] is S. typhimurium ATCC 14028. The data set is described as follows: Growth curves, planktonic bacterial growth. It counts as cell-based. The conditions noted are these: at their IC50 values; hydrochloride. On the procedure: Growth Curves: S. typhimurium was grown overnight in TSB, and this culture was used to inoculate fresh 1:20 TSB (OD600=0.08). Inoculated medium was aliquoted (3 mL) into culture tubes, and compound was added, with untreated inoculated medium serving as the control. Tubes were incubated at 30° C. with shaking. Samples were taken at 2, 4, 6, 8, and 24 h time points, serially diluted in fresh 1:20 TSB, and plated on nutrient agar. Plates were incubated at 37° C. overnight in stationary conditions, and the number of colonies was enumerated.

Where [4] appears, read: Salmonella enterica, 24 h, read-out: IC50 (μM), inhibition of biofilm formation, S. typhimurium ATCC14028, 24 h at 30° C., crystal violet OD540.
Setting [5] is: read-out: IC50 (μM), inhibition of biofilm formation, S. typhimurium ATCC14028, 24 h at 30° C., crystal violet OD540, hydrochloride.

Each structure is given as a SMILES string. “Also recorded” adds a separate entry of the source. Where a name gives a salt, the structure may show the parent alone. Read-outs that look alike come from different tables or passages of the source.

As to `Cl.Nc1nc2cc(NC(=O)c3cc(Cl)cc(Cl)c3)ccc2n1CCCc1ccccc1` [Compound 10e, N-(2-Amino-1-(3-phenylpropyl)-1H-benzo[d]imidazol-5-yl)-3,5-dichlorobenzamide hydrochloride], the IC50 in data set [1] (setting [4]) was 10 to 15 µM; in data set [1] (setting [5]), 13.3 ± 0.49 µM. The “toxicity to G. mellonella” value in data set [2] is on record as “no toxicity”.

Turning to `Cl.Nc1nc2cc(NC(=O)Nc3ccc(Cl)c(Cl)c3)ccc2n1CCCc1ccccc1` [Compound 20, 1-(2-Amino-1-(3-phenylpropyl)-1H-benzo[d]imidazol-5-yl)-3-(3,4-dichlorophenyl)urea hydrochloride], in data set [1] (setting [4]), the half-maximal inhibitory concentration (IC50) came to 7.69 ± 0.25 µM. Besides, in data set [3], the “toxicity to planktonic bacterial growth” value was “no toxicity; also recorded: non-toxic”.

Turning to `Cl.Nc1nc2cc(NC(=O)c3ccc(Cl)c(Cl)c3)ccc2n1CCCc1ccccc1` [Compound 10d, N-(2-Amino-1-(3-phenylpropyl)-1H-benzo[d]imidazol-5-yl)-3,4-dichlorobenzamide hydrochloride], the IC50 in data set [1] (setting [4]) was under 7 µM; in data set [1] (setting [5]), 6.3 ± 1.29 µM; in data set [1] (read-out: IC50 (μM), inhibition of biofilm formation, S. typhimurium ATCC14028, 24 h at 30° C., crystal violet OD540, listed as 15d, hydrochloride) it was 6.3 ± 1.29 µM. Besides, the “toxicity to G. mellonella” value in data set [2] is recorded as “no toxicity”.

In the case of `CCCCCCCCCCn1c(N)nc2cc(NC(=O)c3ccc(CCCCC)cc3)ccc21.Cl` [Compound 5m, N-(2-Amino-1-decyl-1H-benzo[d]imidazol-5-yl)-4-pentylbenzamide hydrochloride], the 50% inhibitory concentration (IC50) in data set [1] (setting [4]) is over 50 µM. Further, the “antibiofilm activity (in words)” value in data set [1] was “reduced or completely abolished antibiofilm activity”.

As to `CCCCCOc1ccc(C(=O)Nc2ccc3c(c2)nc(N)n3CCCc2ccccc2)cc1.Cl` [Compound 10a, N-(2-Amino-1-(3-phenylpropyl)-1H-benzo[d]imidazol-5-yl)-4-pentoxybenzamide hydrochloride], the IC50 in data set [1] (setting [4]) was 5.22 ± 0.11 µM. Besides, the “toxicity to planktonic bacterial growth” value in data set [3] is “no toxicity; also recorded: non-toxic”.

For the molecule `CCCCCCC(=O)Nc1ccc2c(c1)nc(N)n2CCCc1ccccc1` [Compound 10p, N-(2-Amino-1-(3-phenylpropyl)-1H-benzo[d]imidazol-5-yl)heptanamide hydrochloride], the concentration for half-maximal inhibition (IC50) in data set [1] (setting [4]) is 20 to 40 µM.

For the molecule `CCCCCc1ccc(C(=O)Nc2ccc3c(c2)nc(N)n3C(C)C)cc1.Cl` [Compound 5k, N-(2-Amino-1-isopropyl-1H-benzo[d]imidazol-5-yl)-4-pentylbenzamide hydrochloride], in data set [1] (setting [4]), the IC50 was in the range of 20 to 40 µM. Moreover, the “antibiofilm activity (in words)” value in data set [1] is listed as “reduced or completely abolished antibiofilm activity”.

Regarding `CCCc1ccc(C(=O)Nc2ccc3c(c2)nc(N)n3CCCc2ccccc2)cc1` [Compound 10k, N-(2-Amino-1-(3-phenylpropyl)-1H-benzo[d]imidazol-5-yl)-4-propylbenzamide hydrochloride], in data set [1] (setting [4]), the 50% inhibitory concentration (IC50) lay in the range of 15 to 20 µM.
